Experimental data: PMC4685510, “A Cell Biologist’s Field Guide to Aurora Kinase Inhibitors” (Frontiers in Oncology, 2015)
Where “and” joins values, the source holds several entries; their conditions need not be identical. Identical values can stand only once. Like-named read-outs stand apart in the source and are kept apart here.

Tests used:
Assay in all cases: biochemical
Type in all cases: biochemical
[1] = target: 363 human kinases (including Aurora A/B/C) (Homo sapiens, UniProt O00506); conditions: STK25/YSK1; for remaining activity at 0.1 µM: 100 nM; for remaining activity at 0.1 µM / remaining activity at 0.5 µM: read-out: % Enzyme Activity (relative to DMSO controls)
From the text: (§1) However, the Aurora A/B selectivity ratios derived from our in vitro and in vivo data can be compared to prioritize inhibitors.

[2] = target: T1, 363 human kinases (including Aurora A/B/C) (Homo sapiens, UniProt P25098); conditions: GRK2; for remaining activity at 0.1 µM: 100 nM; for remaining activity at 0.1 µM / remaining activity at 0.5 µM: read-out: % Enzyme Activity (relative to DMSO controls)
T1 sequence (P25098 1-689): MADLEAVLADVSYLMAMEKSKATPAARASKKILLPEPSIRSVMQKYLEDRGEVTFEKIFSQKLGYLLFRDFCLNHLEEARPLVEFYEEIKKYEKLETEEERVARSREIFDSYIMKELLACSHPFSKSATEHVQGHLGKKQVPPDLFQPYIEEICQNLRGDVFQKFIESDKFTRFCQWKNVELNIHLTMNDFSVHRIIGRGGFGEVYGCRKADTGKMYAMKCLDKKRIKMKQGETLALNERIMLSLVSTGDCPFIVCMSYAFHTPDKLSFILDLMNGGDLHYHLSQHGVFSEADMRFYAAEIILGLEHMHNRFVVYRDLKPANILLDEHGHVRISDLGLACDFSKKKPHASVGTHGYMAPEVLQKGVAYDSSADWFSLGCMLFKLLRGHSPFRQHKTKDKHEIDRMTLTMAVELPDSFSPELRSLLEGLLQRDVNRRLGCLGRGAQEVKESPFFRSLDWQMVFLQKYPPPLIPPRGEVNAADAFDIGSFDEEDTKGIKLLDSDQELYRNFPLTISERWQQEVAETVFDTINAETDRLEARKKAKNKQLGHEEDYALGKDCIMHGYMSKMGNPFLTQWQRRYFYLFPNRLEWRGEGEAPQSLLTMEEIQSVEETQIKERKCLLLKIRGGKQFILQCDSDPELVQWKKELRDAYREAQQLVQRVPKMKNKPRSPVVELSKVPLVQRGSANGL
From the text: as §1

[3] = target: 363 human kinases (including Aurora A/B/C) (Homo sapiens, UniProt P35916); conditions: for remaining activity at 0.1 µM / remaining activity at 0.5 µM: read-out: % Enzyme Activity (relative to DMSO controls)
From the text: as §1

[4] = target: 363 human kinases (including Aurora A/B/C) (Homo sapiens, UniProt P80192); conditions: MLK1/MAP3K9; for remaining activity at 0.1 µM: 100 nM; for remaining activity at 0.1 µM / remaining activity at 0.5 µM: read-out: % Enzyme Activity (relative to DMSO controls)
From the text: as §1

[5] = target: 363 human kinases (including Aurora A/B/C) (Homo sapiens, UniProt Q15569); conditions: TESK1; for remaining activity at 0.1 µM: 100 nM; for remaining activity at 0.1 µM / remaining activity at 0.5 µM: read-out: % Enzyme Activity (relative to DMSO controls)
From the text: as §1

[6] = target: 363 human kinases (including Aurora A/B/C) (Homo sapiens, UniProt Q6DT37); conditions: DMPK2, [ATP] 2.5 µM; for remaining activity at 0.1 µM: 100 nM; for remaining activity at 0.1 µM / remaining activity at 0.5 µM: read-out: % Enzyme Activity (relative to DMSO controls)
From the text: as §1

[7] = target: T2, 363 human kinases (including Aurora A/B/C) (Homo sapiens, UniProt Q96KB5); conditions: PBK/TOPK; for remaining activity at 0.1 µM: 100 nM; for remaining activity at 0.1 µM / remaining activity at 0.5 µM: read-out: % Enzyme Activity (relative to DMSO controls)
T2 sequence (Q96KB5 1-322): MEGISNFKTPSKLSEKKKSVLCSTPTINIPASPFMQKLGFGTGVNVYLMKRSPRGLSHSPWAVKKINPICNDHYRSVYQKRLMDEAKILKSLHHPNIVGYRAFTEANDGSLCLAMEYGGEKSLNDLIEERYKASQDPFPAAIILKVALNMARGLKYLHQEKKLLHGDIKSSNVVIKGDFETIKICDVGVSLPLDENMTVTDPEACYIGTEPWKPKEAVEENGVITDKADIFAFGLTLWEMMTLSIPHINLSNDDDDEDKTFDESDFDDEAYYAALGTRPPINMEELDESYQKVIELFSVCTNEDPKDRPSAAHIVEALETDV
From the text: as §1

[8] = target: 363 human kinases (including Aurora A/B/C) (Homo sapiens, UniProt Q9P0L2); conditions: MARK1; for remaining activity at 0.1 µM: 100 nM; for remaining activity at 0.1 µM / remaining activity at 0.5 µM: read-out: % Enzyme Activity (relative to DMSO controls)
From the text: as §1

[9] = target: T3, 363 human kinases (including Aurora A/B/C) (Homo sapiens, UniProt Q9UL54); conditions: TAOK2/TAO1; for remaining activity at 0.1 µM: 100 nM; for remaining activity at 0.1 µM / remaining activity at 0.5 µM: read-out: % Enzyme Activity (relative to DMSO controls)
T3 sequence (Q9UL54 1-1235): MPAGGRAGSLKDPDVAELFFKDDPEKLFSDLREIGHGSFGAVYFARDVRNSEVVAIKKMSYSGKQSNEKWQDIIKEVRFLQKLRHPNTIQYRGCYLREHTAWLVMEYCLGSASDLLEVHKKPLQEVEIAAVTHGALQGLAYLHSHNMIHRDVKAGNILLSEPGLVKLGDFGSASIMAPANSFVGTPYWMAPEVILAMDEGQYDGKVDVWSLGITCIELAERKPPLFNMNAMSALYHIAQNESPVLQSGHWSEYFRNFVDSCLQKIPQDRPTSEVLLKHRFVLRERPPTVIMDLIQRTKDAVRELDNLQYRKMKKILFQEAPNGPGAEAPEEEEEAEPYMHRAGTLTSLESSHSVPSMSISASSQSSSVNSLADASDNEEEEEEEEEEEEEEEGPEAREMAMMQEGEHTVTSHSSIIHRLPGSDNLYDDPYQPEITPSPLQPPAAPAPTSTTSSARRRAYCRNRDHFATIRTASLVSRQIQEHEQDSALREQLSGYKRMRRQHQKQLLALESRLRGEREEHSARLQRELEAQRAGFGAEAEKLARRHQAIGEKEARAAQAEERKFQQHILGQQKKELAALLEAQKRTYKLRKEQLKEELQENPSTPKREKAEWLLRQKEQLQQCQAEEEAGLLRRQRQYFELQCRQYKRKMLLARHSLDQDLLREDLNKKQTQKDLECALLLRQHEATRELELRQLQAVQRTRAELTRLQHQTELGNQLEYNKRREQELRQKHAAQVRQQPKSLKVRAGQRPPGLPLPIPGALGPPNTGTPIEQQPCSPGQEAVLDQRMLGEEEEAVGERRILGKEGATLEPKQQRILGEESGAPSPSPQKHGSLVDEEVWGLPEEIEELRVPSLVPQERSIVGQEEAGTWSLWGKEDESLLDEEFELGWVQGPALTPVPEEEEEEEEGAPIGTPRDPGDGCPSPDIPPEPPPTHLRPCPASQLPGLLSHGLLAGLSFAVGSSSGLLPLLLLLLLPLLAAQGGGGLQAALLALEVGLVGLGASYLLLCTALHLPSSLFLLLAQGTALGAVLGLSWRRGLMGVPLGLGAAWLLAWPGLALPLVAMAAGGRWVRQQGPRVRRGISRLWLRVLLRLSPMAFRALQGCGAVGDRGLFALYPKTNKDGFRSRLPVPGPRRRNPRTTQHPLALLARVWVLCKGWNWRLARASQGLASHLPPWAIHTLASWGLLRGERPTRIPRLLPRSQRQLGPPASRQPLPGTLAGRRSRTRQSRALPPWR
From the text: as §1

[10] = FLT4/VEGFR3, [ATP] 5 µM, 500 nM

Chain of 363 human kinases (including Aurora A/B/C) (Homo sapiens, UniProt Q15569) (Q15569 whole entry): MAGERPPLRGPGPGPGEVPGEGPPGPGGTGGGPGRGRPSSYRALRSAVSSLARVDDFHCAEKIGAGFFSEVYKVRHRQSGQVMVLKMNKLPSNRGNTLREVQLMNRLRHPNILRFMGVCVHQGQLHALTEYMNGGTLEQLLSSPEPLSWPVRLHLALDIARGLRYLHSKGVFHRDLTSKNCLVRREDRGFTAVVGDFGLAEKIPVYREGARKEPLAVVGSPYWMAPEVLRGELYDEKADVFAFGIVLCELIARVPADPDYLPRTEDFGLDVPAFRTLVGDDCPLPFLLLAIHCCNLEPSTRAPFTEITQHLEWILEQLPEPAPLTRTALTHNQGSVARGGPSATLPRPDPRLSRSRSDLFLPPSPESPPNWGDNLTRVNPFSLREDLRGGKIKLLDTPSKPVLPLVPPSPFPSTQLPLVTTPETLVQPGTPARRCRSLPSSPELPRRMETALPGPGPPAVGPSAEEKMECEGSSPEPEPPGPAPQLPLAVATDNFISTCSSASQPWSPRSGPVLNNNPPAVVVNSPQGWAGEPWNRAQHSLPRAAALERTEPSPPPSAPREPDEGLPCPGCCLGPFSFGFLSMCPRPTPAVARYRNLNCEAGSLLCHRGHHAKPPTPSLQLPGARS
Chain of 363 human kinases (including Aurora A/B/C) (Homo sapiens, UniProt Q6DT37) (Q6DT37 whole entry): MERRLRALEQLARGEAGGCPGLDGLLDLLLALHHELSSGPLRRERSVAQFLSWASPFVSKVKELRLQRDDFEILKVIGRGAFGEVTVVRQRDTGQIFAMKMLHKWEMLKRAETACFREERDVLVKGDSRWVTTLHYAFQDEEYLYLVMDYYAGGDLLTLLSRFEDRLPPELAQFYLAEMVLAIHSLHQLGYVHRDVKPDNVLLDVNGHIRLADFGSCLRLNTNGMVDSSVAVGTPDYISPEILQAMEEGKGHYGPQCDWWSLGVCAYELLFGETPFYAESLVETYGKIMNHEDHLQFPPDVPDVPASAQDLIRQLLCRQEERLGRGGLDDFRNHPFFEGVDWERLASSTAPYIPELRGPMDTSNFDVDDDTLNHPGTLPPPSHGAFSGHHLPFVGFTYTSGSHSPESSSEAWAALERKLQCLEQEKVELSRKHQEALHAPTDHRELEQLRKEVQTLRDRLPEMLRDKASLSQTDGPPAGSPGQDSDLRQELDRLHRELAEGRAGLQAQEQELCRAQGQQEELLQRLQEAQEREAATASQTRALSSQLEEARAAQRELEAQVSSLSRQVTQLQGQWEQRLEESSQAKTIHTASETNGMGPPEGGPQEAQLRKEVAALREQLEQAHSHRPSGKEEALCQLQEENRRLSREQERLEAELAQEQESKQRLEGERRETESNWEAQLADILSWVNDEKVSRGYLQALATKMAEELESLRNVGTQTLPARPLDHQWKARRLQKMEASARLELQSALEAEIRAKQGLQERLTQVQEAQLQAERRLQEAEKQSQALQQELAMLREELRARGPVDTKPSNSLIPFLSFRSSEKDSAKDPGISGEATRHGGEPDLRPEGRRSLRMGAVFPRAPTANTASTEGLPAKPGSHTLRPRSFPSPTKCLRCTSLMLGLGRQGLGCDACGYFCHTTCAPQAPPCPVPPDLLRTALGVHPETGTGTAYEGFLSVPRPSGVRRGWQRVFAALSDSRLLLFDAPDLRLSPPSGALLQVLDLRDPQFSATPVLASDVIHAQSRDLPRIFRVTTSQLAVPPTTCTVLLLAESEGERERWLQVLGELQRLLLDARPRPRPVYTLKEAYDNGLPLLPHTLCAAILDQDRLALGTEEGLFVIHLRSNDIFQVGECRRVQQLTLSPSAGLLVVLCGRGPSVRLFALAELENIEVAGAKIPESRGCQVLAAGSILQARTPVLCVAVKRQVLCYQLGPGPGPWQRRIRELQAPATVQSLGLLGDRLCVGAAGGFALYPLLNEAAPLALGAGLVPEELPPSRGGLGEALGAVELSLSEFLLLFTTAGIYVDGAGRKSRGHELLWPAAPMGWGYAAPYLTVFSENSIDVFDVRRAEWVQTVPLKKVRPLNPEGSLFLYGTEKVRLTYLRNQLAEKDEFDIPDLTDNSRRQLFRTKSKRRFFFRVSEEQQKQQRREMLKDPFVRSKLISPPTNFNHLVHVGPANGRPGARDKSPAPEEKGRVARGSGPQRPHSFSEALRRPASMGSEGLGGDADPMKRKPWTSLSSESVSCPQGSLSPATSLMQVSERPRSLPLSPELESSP
Chain of 363 human kinases (including Aurora A/B/C) (Homo sapiens, UniProt Q9P0L2) (Q9P0L2 whole entry): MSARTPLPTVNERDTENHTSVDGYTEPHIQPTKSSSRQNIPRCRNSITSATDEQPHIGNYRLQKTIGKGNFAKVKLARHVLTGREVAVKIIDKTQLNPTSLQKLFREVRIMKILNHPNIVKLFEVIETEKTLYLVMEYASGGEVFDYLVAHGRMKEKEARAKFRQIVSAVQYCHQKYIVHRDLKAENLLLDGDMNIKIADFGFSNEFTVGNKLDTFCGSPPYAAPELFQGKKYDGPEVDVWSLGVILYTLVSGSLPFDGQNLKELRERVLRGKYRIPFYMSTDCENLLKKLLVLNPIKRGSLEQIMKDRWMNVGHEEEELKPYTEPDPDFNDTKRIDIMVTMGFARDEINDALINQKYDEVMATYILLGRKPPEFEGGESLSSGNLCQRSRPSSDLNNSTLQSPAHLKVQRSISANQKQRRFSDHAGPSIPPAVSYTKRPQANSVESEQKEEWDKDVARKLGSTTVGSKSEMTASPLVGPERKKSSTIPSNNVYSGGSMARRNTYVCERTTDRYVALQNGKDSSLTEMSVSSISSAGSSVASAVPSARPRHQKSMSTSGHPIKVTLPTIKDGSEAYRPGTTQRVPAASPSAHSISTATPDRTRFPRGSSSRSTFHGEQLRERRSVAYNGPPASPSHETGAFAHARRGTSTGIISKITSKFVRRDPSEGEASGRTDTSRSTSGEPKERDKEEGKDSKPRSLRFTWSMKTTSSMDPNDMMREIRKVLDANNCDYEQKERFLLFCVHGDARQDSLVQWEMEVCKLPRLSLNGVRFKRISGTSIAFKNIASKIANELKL
Chain of 363 human kinases (including Aurora A/B/C) (Homo sapiens, UniProt P35916) (P35916 25-1363): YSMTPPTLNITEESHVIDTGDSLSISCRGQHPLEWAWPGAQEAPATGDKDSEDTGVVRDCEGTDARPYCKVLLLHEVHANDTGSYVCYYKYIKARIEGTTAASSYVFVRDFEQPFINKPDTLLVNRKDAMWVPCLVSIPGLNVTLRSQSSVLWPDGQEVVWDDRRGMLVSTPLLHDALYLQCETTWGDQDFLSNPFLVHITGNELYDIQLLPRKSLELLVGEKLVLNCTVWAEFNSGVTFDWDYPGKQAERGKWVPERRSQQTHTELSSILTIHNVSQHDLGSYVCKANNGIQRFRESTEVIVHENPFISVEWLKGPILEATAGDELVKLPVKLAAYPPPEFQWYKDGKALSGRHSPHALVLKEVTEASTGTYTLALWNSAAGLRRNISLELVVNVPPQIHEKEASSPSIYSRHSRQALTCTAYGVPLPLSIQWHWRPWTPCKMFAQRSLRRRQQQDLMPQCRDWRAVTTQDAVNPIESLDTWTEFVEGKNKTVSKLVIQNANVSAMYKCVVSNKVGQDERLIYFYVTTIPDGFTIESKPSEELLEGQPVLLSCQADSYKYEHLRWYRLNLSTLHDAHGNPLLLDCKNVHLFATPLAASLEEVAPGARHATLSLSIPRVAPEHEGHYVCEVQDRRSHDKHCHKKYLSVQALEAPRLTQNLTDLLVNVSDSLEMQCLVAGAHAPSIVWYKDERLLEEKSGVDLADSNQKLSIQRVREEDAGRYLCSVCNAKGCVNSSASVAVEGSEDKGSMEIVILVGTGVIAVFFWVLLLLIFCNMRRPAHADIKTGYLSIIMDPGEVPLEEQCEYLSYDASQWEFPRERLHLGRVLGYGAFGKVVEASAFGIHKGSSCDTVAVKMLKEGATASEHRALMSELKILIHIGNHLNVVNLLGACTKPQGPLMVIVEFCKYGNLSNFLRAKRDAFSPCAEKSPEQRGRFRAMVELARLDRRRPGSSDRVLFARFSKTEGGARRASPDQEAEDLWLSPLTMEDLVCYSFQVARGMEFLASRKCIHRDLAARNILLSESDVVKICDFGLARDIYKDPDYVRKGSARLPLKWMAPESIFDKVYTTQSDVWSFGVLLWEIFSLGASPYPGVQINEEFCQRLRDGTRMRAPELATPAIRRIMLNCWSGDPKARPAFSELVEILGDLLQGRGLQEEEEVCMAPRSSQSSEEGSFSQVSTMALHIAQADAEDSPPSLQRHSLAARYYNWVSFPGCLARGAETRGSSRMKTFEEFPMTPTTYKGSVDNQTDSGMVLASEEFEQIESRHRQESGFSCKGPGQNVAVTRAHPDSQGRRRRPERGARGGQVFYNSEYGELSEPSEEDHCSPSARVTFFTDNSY
Chain of 363 human kinases (including Aurora A/B/C) (Homo sapiens, UniProt O00506) (O00506 whole entry): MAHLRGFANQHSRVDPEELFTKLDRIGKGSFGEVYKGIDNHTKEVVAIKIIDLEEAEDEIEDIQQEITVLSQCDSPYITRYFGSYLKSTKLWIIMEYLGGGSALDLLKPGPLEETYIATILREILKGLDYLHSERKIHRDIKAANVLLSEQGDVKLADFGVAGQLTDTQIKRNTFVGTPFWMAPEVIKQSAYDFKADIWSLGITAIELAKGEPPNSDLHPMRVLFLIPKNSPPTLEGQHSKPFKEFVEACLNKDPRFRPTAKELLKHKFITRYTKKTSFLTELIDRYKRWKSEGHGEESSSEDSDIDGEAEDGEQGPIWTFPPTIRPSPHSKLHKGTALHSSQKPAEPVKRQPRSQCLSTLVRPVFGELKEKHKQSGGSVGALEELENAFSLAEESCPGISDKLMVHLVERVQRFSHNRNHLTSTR

CCn1cc(-c2ccnc3[nH]c(-c4cccc(CN(C)C)c4)cc23)c(-c2ccc(NC(=O)N(C)C)cc2)n1 [GSK1070916]
remaining activity at 0.1 µM [1]: 98.9% | remaining activity at 0.1 µM [2]: 101% | remaining activity at 0.1 µM [3]: 60.2% and 59.9% | remaining activity at 0.1 µM [4]: 97.6% | remaining activity at 0.1 µM [5]: 103% | remaining activity at 0.1 µM [6]: 89.4% | remaining activity at 0.1 µM [7]: 97.5% | remaining activity at 0.1 µM [8]: 93% | remaining activity at 0.1 µM [9]: 92.6%

O=C(O)[C@]1(Cc2cccc(Nc3nccs3)n2)CC[C@@H](Oc2cccc(Cl)c2F)CC1 [MK-5108]
remaining activity at 0.1 µM [1]: 104% | remaining activity at 0.5 µM ([1]; 500 nM): 113% | remaining activity at 0.1 µM [2]: 102% | remaining activity at 0.5 µM ([2]; 500 nM): 106% | remaining activity at 0.1 µM ([3]; FLT4/VEGFR3, [ATP] 5 µM, 100 nM): 26.2% | remaining activity at 0.5 µM [3, 10]: 6.3% | remaining activity at 0.1 µM [4]: 88.5% | remaining activity at 0.5 µM ([4]; 500 nM): 64.3% | remaining activity at 0.1 µM [5]: 97.9% | remaining activity at 0.5 µM ([5]; 500 nM): 99.8% | remaining activity at 0.1 µM [6]: 98.7% | remaining activity at 0.5 µM ([6]; 500 nM): 140% | remaining activity at 0.1 µM [7]: 93.9% | remaining activity at 0.5 µM ([7]; 500 nM): 95.4% | remaining activity at 0.1 µM [8]: 117% | remaining activity at 0.5 µM ([8]; 500 nM): 98.6% | remaining activity at 0.1 µM [9]: 97.5% | remaining activity at 0.5 µM ([9]; 500 nM): 78.1%

O=C(c1cccc(Cl)c1F)N1CCN(Cc2cccc(Nc3nccs3)n2)CC1 [MK-8745]
% Enzyme Activity (relative to DMSO controls) ([1]; 500 nM): 99.16% | remaining activity at 0.5 µM ([1]; 500 nM): 100% | % Enzyme Activity (relative to DMSO controls) ([2]; 500 nM): 103.92% | remaining activity at 0.5 µM ([2]; 500 nM): 105% | % Enzyme Activity (relative to DMSO controls) [3, 10]: 87.71% | remaining activity at 0.5 µM [3, 10]: 88.4% | % Enzyme Activity (relative to DMSO controls) ([4]; 500 nM): 101.78% | remaining activity at 0.5 µM ([4]; 500 nM): 102% | % Enzyme Activity (relative to DMSO controls) ([5]; 500 nM): 97.82% | remaining activity at 0.5 µM ([5]; 500 nM): 99.9% | % Enzyme Activity (relative to DMSO controls) ([6]; 500 nM): 124.49% | remaining activity at 0.5 µM ([6]; 500 nM): 126% | % Enzyme Activity (relative to DMSO controls) ([7]; 500 nM): 91.24% | remaining activity at 0.5 µM ([7]; 500 nM): 94.4% | % Enzyme Activity (relative to DMSO controls) ([8]; 500 nM): 96.30% | remaining activity at 0.5 µM ([8]; 500 nM): 96.5% | % Enzyme Activity (relative to DMSO controls) ([9]; 500 nM): 97.14% | remaining activity at 0.5 µM ([9]; 500 nM): 97.6%
